Test results: patent publication US6706663B2, “Herbicidal 3-heterocyclic substituted benzisothiazole and benzisoxazole compounds” (Wyeth, priority 2000, dated 2004)

Columns and labels:
[1] = tested on: ABUTH (Abutilon theophrasti); test: Postemergence herbicidal evaluation; type: in vivo, Medic.; conditions: postemergence
How it was run: (§1)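 Visual 0–9 injury scores versus control plants, covering stand, vigour, malformation, size, chlorosis and general appearance, taken four to five weeks post-spray and averaged over replicate tests. Plants were sprayed at roughly two weeks old and held on greenhouse benches.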

GALAP (Galium aparine) [2] = test: Postemergence herbicidal evaluation; type: in vivo; conditions: postemergence
How it was run: as §1

[3] = tested on: IPOHE (Ipomoea hederacea); test: Postemergence herbicidal evaluation; type: in vivo, (L.) Jacq.; conditions: postemergence
How it was run: as §1

SETVI (Setaria viridis) [4] = test: Postemergence herbicidal evaluation; type: in vivo, (L.) Beau; conditions: postemergence
How it was run: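 ~2-wk seedlings; spray 0.0040–1.000 kg/ha in 50/50 acetone/water + 0.5% TWEEN 20, 40 psi nozzle. Greenhouse hold; visual 0–9 rating vs control at 4–5 wk; multiple tests averaged.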

[5] = tested on: GLXMAW (Soybean, Williams); test: Postemergence herbicidal evaluation; type: in vivo, Glycine max, (L.) Merr. cv Williams; conditions: postemergence
How it was run: as §1

[6] = tested on: TRZAWR (Wheat, Winter, cv Riband); test: Postemergence herbicidal evaluation; type: in vivo, Triticum aestivum; conditions: postemergence
How it was run: as §1

[7] = tested on: ABUTH (Abutilon theophrasti); test: Preemergence herbicidal evaluation; type: in vivo, Medic.; conditions: rated 4-5 weeks after treatment
[8] = tested on: AMBEL (Ambrosia artemisifolia); test: Preemergence herbicidal evaluation; type: in vivo, L.; conditions: rated 4-5 weeks after treatment
How it was run: (§2)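 Rating 0–9, visual, vs control; 4–5 wk after spraying seeded cups with compound in aq. acetone; conventional greenhouse care.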

[9] = tested on: CASOB (Cassia obtusifolia); test: Preemergence herbicidal evaluation; type: in vivo, L.; conditions: rated 4-5 weeks after treatment
How it was run: as §2

[10] = tested on: CHEAL (Chenopodium album); test: Preemergence herbicidal evaluation; type: in vivo, L.; conditions: rated 4-5 weeks after treatment
How it was run: as §2

GALAP (Galium aparine) [11] = test: Preemergence herbicidal evaluation; type: in vivo; conditions: rated 4-5 weeks after treatment
How it was run: as §2

[12] = tested on: ECHCG (Echinochloa crus-galli); test: Preemergence herbicidal evaluation; type: in vivo, (L.) Beau; conditions: rated 4-5 weeks after treatment
How it was run: as §2

SETVI (Setaria viridis) [13] = test: Preemergence herbicidal evaluation; type: in vivo, (L.) Beau; conditions: rated 4-5 weeks after treatment
How it was run: as §2

ZEAMX (Corn, Field) = test: Preemergence herbicidal evaluation; type: in vivo, Zea mays, L.; conditions: rated 4-5 weeks after treatment
[14] = tested on: MOOVA (Monochoria vaginalis); test: Flooded paddy, preemergence weed control; type: in vivo, Presl.; conditions: rated 3-4 weeks after treatment, 0-9 rating scale
How it was run: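 In this preemergence paddy assay, weed seeds or organs are sown at up to 0.5 cm in silt loam and covered by 1.5–3 cm of water for the full test period. After treatment the pots are kept in a greenhouse, and herbicidal effect is rated 0-9 visually against a control.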

ORYSAT (Rice, Tebonnet) = test: Flooded paddy, post-transplant rice tolerance; type: in vivo, Oryza sativa, (L.) Tebonnet; conditions: flooded paddy, post-transplant rice, rated 3-4 weeks after treatment, 0-9 rating scale
How it was run: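 Scores (0-9) reflect visual injury relative to untreated plants in flooded silt loam. Each pot held two transplanted ten-day-old seedlings under 1.5 to 3 cm standing water in the greenhouse.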

COCC1COC(c2nsc3ccc(-n4c(=O)cc(C(F)(F)F)n(C)c4=O)cc23)O1 (stereo not drawn) [Compound 64, 3-[3-[4-(methoxymethyl)-1,3-dioxolan-2-yl]-1,2-benzisothiazol-5-yl]-1-methyl-6-(trifluoromethyl)uracil]
ABUTH herbicidal rating ([1]; rate 0.0320 kg/ha): 9.0 | ABUTH herbicidal rating ([1]; rate 0.0620 kg/ha): 9.0 | GALAP herbicidal rating (GALAP (Galium aparine) [2]; rate 0.0320 kg/ha): 9.0 | GALAP herbicidal rating (GALAP (Galium aparine) [2]; rate 0.0620 kg/ha): 9.0 | IPOHE herbicidal rating ([3]; rate 0.0320 kg/ha): 9.0 | IPOHE herbicidal rating ([3]; rate 0.0620 kg/ha): 9.0 | SETVI herbicidal rating (SETVI (Setaria viridis) [4]; rate 0.0320 kg/ha): 6.0 | SETVI herbicidal rating (SETVI (Setaria viridis) [4]; rate 0.0620 kg/ha): 7.0 | GLXMAW herbicidal rating ([5]; rate 0.0320 kg/ha): 7.0 | GLXMAW herbicidal rating ([5]; rate 0.0620 kg/ha): 8.5 | TRZAWR herbicidal rating ([6]; rate 0.0320 kg/ha): 4.0 | TRZAWR herbicidal rating ([6]; rate 0.0620 kg/ha): 5.0 | Preemergence herbicidal rating ABUTH ([7]; Rate 0.0620 kg/ha): 9.0 | Preemergence herbicidal rating ABUTH ([7]; Rate 0.1250 kg/ha): 9.0 | Preemergence herbicidal rating ABUTH ([7]; Rate 0.2500 kg/ha): 9.0 | Preemergence herbicidal rating AMBEL ([8]; Rate 0.0620 kg/ha): 9.0 | Preemergence herbicidal rating AMBEL ([8]; Rate 0.1250 kg/ha): 9.0 | Preemergence herbicidal rating AMBEL ([8]; Rate 0.2500 kg/ha): 9.0 | Preemergence herbicidal rating CASOB ([9]; Rate 0.0620 kg/ha): 7.5 | Preemergence herbicidal rating CASOB ([9]; Rate 0.1250 kg/ha): 9.0 | Preemergence herbicidal rating CASOB ([9]; Rate 0.2500 kg/ha): 9.0 | Preemergence herbicidal rating CHEAL ([10]; Rate 0.0620 kg/ha): 9.0 | Preemergence herbicidal rating CHEAL ([10]; Rate 0.1250 kg/ha): 9.0 | Preemergence herbicidal rating CHEAL ([10]; Rate 0.2500 kg/ha): 9.0 | Preemergence herbicidal rating GALAP (GALAP (Galium aparine) [11]; Rate 0.0620 kg/ha): 9.0 | Preemergence herbicidal rating GALAP (GALAP (Galium aparine) [11]; Rate 0.1250 kg/ha): 9.0 | Preemergence herbicidal rating GALAP (GALAP (Galium aparine) [11]; Rate 0.2500 kg/ha): 9.0 | Preemergence herbicidal rating ECHCG ([12]; Rate 0.0620 kg/ha): 9.0 | Preemergence herbicidal rating ECHCG ([12]; Rate 0.1250 kg/ha): 9.0 | Preemergence herbicidal rating ECHCG ([12]; Rate 0.2500 kg/ha): 9.0 | Preemergence herbicidal rating SETVI (SETVI (Setaria viridis) [13]; Rate 0.0620 kg/ha): 9.0 | Preemergence herbicidal rating SETVI (SETVI (Setaria viridis) [13]; Rate 0.1250 kg/ha): 9.0 | Preemergence herbicidal rating SETVI (SETVI (Setaria viridis) [13]; Rate 0.2500 kg/ha): 9.0 | Preemergence herbicidal rating ZEAMX (ZEAMX (Corn, Field); Rate 0.0620 kg/ha): 8.5 | Preemergence herbicidal rating ZEAMX (ZEAMX (Corn, Field); Rate 0.1250 kg/ha): 9.0 | Preemergence herbicidal rating ZEAMX (ZEAMX (Corn, Field); Rate 0.2500 kg/ha): 9.0 | herbicidal rating, MOOVA ([14]; rate 0.0080 kg/ha): 0.0 | herbicidal rating, MOOVA ([14]; rate 0.0320 kg/ha): 9.0 | herbicidal rating, MOOVA ([14]; rate 0.1250 kg/ha): 9.0 | herbicidal rating, ORYSAT (rice tolerance) (ORYSAT (Rice, Tebonnet); rate 0.0080 kg/ha): 5.5 | herbicidal rating, ORYSAT (rice tolerance) (ORYSAT (Rice, Tebonnet); rate 0.0320 kg/ha): 8.0 | herbicidal rating, ORYSAT (rice tolerance) (ORYSAT (Rice, Tebonnet); rate 0.1250 kg/ha): 9.0

CC1=CC(C)(C)OC(c2nsc3ccc(-n4c(=O)cc(C(F)(F)F)n(C)c4=O)cc23)C1 (stereo not drawn) [Compound 65, 3-[3-(3,6-dihydro-4,6,6-trimethyl-2H-pyran-2-yl)-1,2-benzisothiazol-5-yl]-1-methyl-6-(trifluoromethyl)uracil]
ABUTH herbicidal rating ([1]; rate 0.0320 kg/ha): 9.0 | ABUTH herbicidal rating ([1]; rate 0.0620 kg/ha): 9.0 | GALAP herbicidal rating (GALAP (Galium aparine) [2]; rate 0.0320 kg/ha): 5.0 | GALAP herbicidal rating (GALAP (Galium aparine) [2]; rate 0.0620 kg/ha): 6.0 | IPOHE herbicidal rating ([3]; rate 0.0320 kg/ha): 9.0 | IPOHE herbicidal rating ([3]; rate 0.0620 kg/ha): 9.0 | SETVI herbicidal rating (SETVI (Setaria viridis) [4]; rate 0.0320 kg/ha): 3.0 | SETVI herbicidal rating (SETVI (Setaria viridis) [4]; rate 0.0620 kg/ha): 7.0 | GLXMAW herbicidal rating ([5]; rate 0.0320 kg/ha): 5.5 | GLXMAW herbicidal rating ([5]; rate 0.0620 kg/ha): 7.0 | TRZAWR herbicidal rating ([6]; rate 0.0320 kg/ha): 4.0 | TRZAWR herbicidal rating ([6]; rate 0.0620 kg/ha): 5.0 | Preemergence herbicidal rating ABUTH ([7]; Rate 0.0620 kg/ha): 9.0 | Preemergence herbicidal rating ABUTH ([7]; Rate 0.1250 kg/ha): 9.0 | Preemergence herbicidal rating ABUTH ([7]; Rate 0.2500 kg/ha): 9.0 | Preemergence herbicidal rating AMBEL ([8]; Rate 0.0620 kg/ha): 8.0 | Preemergence herbicidal rating AMBEL ([8]; Rate 0.1250 kg/ha): 9.0 | Preemergence herbicidal rating AMBEL ([8]; Rate 0.2500 kg/ha): 9.0 | Preemergence herbicidal rating CASOB ([9]; Rate 0.0620 kg/ha): 0.0 | Preemergence herbicidal rating CASOB ([9]; Rate 0.1250 kg/ha): 0.0 | Preemergence herbicidal rating CASOB ([9]; Rate 0.2500 kg/ha): 0.0 | Preemergence herbicidal rating CHEAL ([10]; Rate 0.0620 kg/ha): 9.0 | Preemergence herbicidal rating CHEAL ([10]; Rate 0.1250 kg/ha): 9.0 | Preemergence herbicidal rating CHEAL ([10]; Rate 0.2500 kg/ha): 9.0 | Preemergence herbicidal rating GALAP (GALAP (Galium aparine) [11]; Rate 0.0620 kg/ha): 5.0 | Preemergence herbicidal rating GALAP (GALAP (Galium aparine) [11]; Rate 0.1250 kg/ha): 7.0 | Preemergence herbicidal rating GALAP (GALAP (Galium aparine) [11]; Rate 0.2500 kg/ha): 7.0 | Preemergence herbicidal rating ECHCG ([12]; Rate 0.0620 kg/ha): 9.0 | Preemergence herbicidal rating ECHCG ([12]; Rate 0.1250 kg/ha): 9.0 | Preemergence herbicidal rating ECHCG ([12]; Rate 0.2500 kg/ha): 9.0 | Preemergence herbicidal rating SETVI (SETVI (Setaria viridis) [13]; Rate 0.0620 kg/ha): 9.0 | Preemergence herbicidal rating SETVI (SETVI (Setaria viridis) [13]; Rate 0.1250 kg/ha): 9.0 | Preemergence herbicidal rating SETVI (SETVI (Setaria viridis) [13]; Rate 0.2500 kg/ha): 9.0 | Preemergence herbicidal rating ZEAMX (ZEAMX (Corn, Field); Rate 0.0620 kg/ha): 7.0 | Preemergence herbicidal rating ZEAMX (ZEAMX (Corn, Field); Rate 0.1250 kg/ha): 8.0 | Preemergence herbicidal rating ZEAMX (ZEAMX (Corn, Field); Rate 0.2500 kg/ha): 9.0 | herbicidal rating, MOOVA ([14]; rate 0.0080 kg/ha): 0.0 | herbicidal rating, MOOVA ([14]; rate 0.0320 kg/ha): 0.0 | herbicidal rating, MOOVA ([14]; rate 0.1250 kg/ha): 3.0 | herbicidal rating, ORYSAT (rice tolerance) (ORYSAT (Rice, Tebonnet); rate 0.0080 kg/ha): 0.0 | herbicidal rating, ORYSAT (rice tolerance) (ORYSAT (Rice, Tebonnet); rate 0.0320 kg/ha): 0.0 | herbicidal rating, ORYSAT (rice tolerance) (ORYSAT (Rice, Tebonnet); rate 0.1250 kg/ha): 0.0
